Source: patent US6833248B2, “Human caspase-12 materials and methods” (Pharmacia & Upjohn Company, priority 2000, dated 2004)
Residues, ends and D or L forms follow the SMILES beside them. *: point of attachment. Cbz = O=C(OCc1ccccc1)*; CH2F = FC*

Legend:
[1] = system: endogenous human caspase-12; assay: Induction of endogenous caspase-12 protein by ER stress-inducing agents in SH-EP cells (Western blot); assay type: cell-based
Experimental: Reports in the literature indicated a strong activation of murine caspase-12 in response to agents which induce an endoplasmic reticulum (ER) stress response, such as tunicamycin or the Ca^2+ ionophore A23187. The activation of endogenous human caspase-12 by these ER stress-inducing agents in SH-EP and HEK293 cells was evaluated by Western blot analysis of cell lysates. SH-EP is a neuroblastoma cell line that endogenously expresses human caspase-12 at detectable levels. HEK293 is a transformed kidney cell line that lacks detectable caspase-12.
Cell cultures were treated with 1 μg/ml tunicamycin or 2 μM A23187 (Calbiochem) and harvested over time. Cells were lysed in detergent buffer, cellular proteins resolved on NuPAGE gels and subjected to Western blot analysis using the same antibody as in Example 8A above. […] (BACHEM) for 40 hours.
(§1) The biological significance of caspase-12 up-regulation by the ER stress-inducing agent A23187 in apoptosis was further investigated. SH-EP cells were treated with 2 μM A23187 for 40 hours to induce expression of endogenous caspase-12. One control culture was left untreated. Of the four cultures treated with A23187, one culture received 10 μg/ml cycloheximide (CHX) to block new protein synthesis and two cultures were subjected to an apoptotic stimulus, either 250 ng/ml α-Fas antibody for 24 hours or 1200 microjoules UV irradiation. The cultures were harvested after 6.5 hours. Western blot analysis of caspase-12 expression and activation was done as described above in Example 8A, using similar protein loads for each condition tested.

caspase-3 = assay: Caspase-3 cleavage following UV irradiation in SH-EP cells subjected to ER stress (Western blot); assay type: cell-based; settings: 2 μM A23187 40 hours
endogenous caspase-12 = assay: Caspase-12 cleavage/activation in SH-EP cells subjected to ER stress (Western blot); assay type: cell-based, human; settings: 2 μM A23187 40 hours, harvested 6.5 hours after UV
Experimental: as §1
Additional experiments of were conducted to evaluate the effect of a caspase or calpain inhibitor on SH-EP cells subjected to ER stress. Z-VAD-fmk (Z=benzyloxycarbonyl group at the N-terminus of Val-Ala-DL-Asp(OMe)-fluoromethylketone; BACHEM) is a general caspase inhibitor that inhibits most of the known caspases, to varying extents. Calpeptin is an inhibitor of calpains, a family of calcium-dependent proteases that proteolyze a variety of cellular proteins. […] Caspase activation was evaluated by Western blot using antibodies to caspase-12 as described above in Example 8A. […]

procaspase-3 = assay: Proteolytic activity using procaspase-3 substrate (Western blot); assay type: biochemical; settings: partially purified preparation, 2 hours at 37° C.; antibody to full-length caspase-3
Experimental: Lysates which contain recombinant caspases produced by expression in E. coli often contain fragments indicative of autoprocessing. Because the autolysis in caspase-12 lysates observed in Example 3B above is indicative of enzymatic activity, the enzymatic activity of partially purified human caspase-12 lysates was evaluated using procaspase-3 as a potential substrate. Caspase-3 is an effector caspase, which is cleaved at Asp175 by initiator caspases-8 and -9 to give the mature 19 kDa and 11 kDa subunits of the active enzyme. Processing of procaspase-3 was evaluated by Western blot analysis using an antibody that binds to full-length caspase-3 and another antibody that binds to the larger B subunit and that is specific for activated enzyme.
For use as a substrate for caspase-12, procaspase-3 was immunoprecipitated from SH-EP cell lysates using an antibody to full-length caspase-3 (Upstate Biotechnology, Inc.) and isolated on Protein G-Plus/Protein A agarose (Oncogene Science). […] Caspase-3 processing/activation by caspase-12 was detected by incubating with an anti-caspase-3 antibody (Upstate Biotechnology) which recognizes all subunits of caspase-3. Following incubation with an anti-rabbit HRP-conjugated antibody (Santa Cruz Biotechnology), immunoreactivity was detected by chemiluminescence using SuperSignal West PICO reagent (Pierce). […]

DEVD-R110 = assay: Homogeneous Caspase Assay, fluorimetric, release of rhodamine-110 from DEVD-R110; assay type: biochemical; settings: partially purified protein preparation; two-hour incubation of DEVD-R110 substrate
Source text: The enzymatic activity of the partially purified hCaspase-12 and ΔCARD proteins was further evaluated in a fluorimetric assay allowing quantitation. The caspase activity of partially purified hCaspase-12 and ΔCARD protein preparations was compared to a control (non-caspase protein) preparation, using the Homogeneous Caspase Assay (Roche Biochemicals) according to the manufacturer's protocol. The assay measures the amount of free rhodamine-110, following its release from the substrate DEVD-R110, a caspase recognition sequence. Following a two-hour incubation of DEVD-R110 substrate with dilutions of the various protein preparations, free rhodamine-110 was quantitated fluorimetrically. Measured fluorescence intensity (RFU) for each preparation was 807 for hCaspase-12, 445 for ΔCARD, and 31 for the control.

SH-EP cells = assay: Cleavage of exogenous hCaspase-12 in transfected SH-EP cells after αFas-antibody induction of the extrinsic cell death pathway (Western blot); assay type: cell-based; settings: 250 ng/ml αFas-antibody for 18 hours
Experimental: The role of hCaspase-12 in cell death pathways was examined using cells of a neuroblastoma cell line, SH-EP. In the extrinsic (or receptor-induced) cell death pathway, caspase-8 is the apical caspase that cleaves effector caspases such as caspase-3, which cleaves many cellular substrates. Caspase activation, indicated by cleavage of the proform of the enzyme in cell lysates, was evaluated by Western blot analysis.
The expression vector pIRES-hrGFP-1a harboring the hCaspase-12 or RIK-5 gene was transfected into SH-EP cells using Superfect transfection reagent (Qiagen). At 24 hours post-transfection, 250 ng/ml αFas-antibody (CH-11, Upstate Biotechnology) was added and incubated for 18 hours to induce the extrinsic cell death pathway. Culture medium and cells were harvested and lysed in detergent buffer. Cleavage of exogenous hCaspase-12 was evaluated by Western blot analysis using anti-human caspase-12 antibody (prepared against peptide WSHHLEEIFQKVQHSFE as described in Example 4).

calpain II = target: T1, calpain II (Homo sapiens, UniProt P17655); assay: Calpain II cleavage of human caspase-12 in vitro (Western blot); assay type: biochemical; settings: affinity-purified protein, 0.012 U/μl calpain II activated by 5 mM CaCl2
T1 construct: purchased Calbiochem
T1 sequence (P17655 1-700): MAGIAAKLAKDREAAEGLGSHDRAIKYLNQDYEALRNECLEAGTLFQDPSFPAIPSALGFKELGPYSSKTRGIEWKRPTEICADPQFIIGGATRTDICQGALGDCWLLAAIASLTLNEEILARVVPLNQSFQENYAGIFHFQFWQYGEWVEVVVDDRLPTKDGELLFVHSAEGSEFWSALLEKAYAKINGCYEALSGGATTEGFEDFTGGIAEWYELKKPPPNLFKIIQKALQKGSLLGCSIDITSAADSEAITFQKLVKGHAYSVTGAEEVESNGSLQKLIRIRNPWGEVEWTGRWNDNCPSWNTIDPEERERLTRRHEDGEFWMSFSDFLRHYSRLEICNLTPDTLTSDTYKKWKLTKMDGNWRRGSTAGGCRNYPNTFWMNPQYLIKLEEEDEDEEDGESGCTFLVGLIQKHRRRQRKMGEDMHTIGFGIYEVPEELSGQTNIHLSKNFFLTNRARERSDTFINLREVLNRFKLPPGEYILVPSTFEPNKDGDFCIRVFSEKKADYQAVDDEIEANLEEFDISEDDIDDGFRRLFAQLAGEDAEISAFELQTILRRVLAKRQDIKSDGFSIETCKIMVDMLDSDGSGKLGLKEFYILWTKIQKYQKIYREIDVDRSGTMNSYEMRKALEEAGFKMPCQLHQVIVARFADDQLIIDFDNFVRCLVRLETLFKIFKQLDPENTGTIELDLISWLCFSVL
T1 sequence (P04632 1-268 partner): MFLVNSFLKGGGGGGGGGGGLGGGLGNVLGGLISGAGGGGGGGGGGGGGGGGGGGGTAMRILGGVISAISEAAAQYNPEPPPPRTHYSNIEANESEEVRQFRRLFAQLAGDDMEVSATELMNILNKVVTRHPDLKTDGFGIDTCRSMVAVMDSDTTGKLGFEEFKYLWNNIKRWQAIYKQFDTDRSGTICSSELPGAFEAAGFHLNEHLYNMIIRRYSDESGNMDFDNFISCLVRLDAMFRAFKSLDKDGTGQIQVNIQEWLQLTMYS
Experimental: The relationship between calpain and caspase-12 was explored in vitro as follows. Affinity-purified hCaspase-12 and ΔCARD caspase-12 prepared as described in Example 3B above, were incubated with 0.012 U/μl calpain II (Calbiochem) in solutions containing 150 mM NaCl, 20 mM Tris-HCl, pH 7.5, and 1 mM DTT. Calpain II was activated by the addition of 5 mM CaCl2, while corresponding control cultures were not activated by addition of calcium. Cleavage of human caspase-12 was evaluated by Western blot analysis as described in Example 8A above. […] Thus, the activation and processing of caspase-12 is closely tied to cellular calcium levels. It is anticipated that calpain will process caspase-12 by recognizing the cleavage site “ASADT” at positions 269-272 of hCaspase-12 (SEQ ID NO: 77), with cleavage occurring between residues 271 and 272. Because cellular calcium is an important regulatory feature in health and disease, the signaling pathway to caspase-12 may have multiple branches that can result in activation of this caspase.

## CNc1ccc2oc(C[C@H]3O[C@@]4(CC[C@H]3C)O[C@H]([C@H](C)C(=O)c3ccc[nH]3)[C@H](C)C[C@H]4C)nc2c1C(=O)O [A23187]
[1]; SH-EP cells, 2 μM A23187, harvested over time
  Induction of caspase-12 protein: strong induction
[1]; SH-EP cells, 2 μM A23187 for 40 hours
  Expression of caspase-12: induced

## COC(=O)C[C@H](NC(=O)[C@H](C)NC(=O)[C@@H](NC(=O)OCc1ccccc1)C(C)C)C(=O)CF [Z-VAD-fmk] (Cbz-Val-Ala-Asp(OMe)-CH2F)
caspase-3; 50 μM Z-VAD-fmk
  Cleavage of caspase-3 following UV irradiation: inhibited
Endogenous caspase-12; pre-incubated with 50 μM Z-VAD-fmk 1 hour prior to UV
  Cleavage of pro-caspase-12 after UV irradiation: reduces cleavage

## CCCC[C@@H](C=O)NC(=O)[C@H](CC(C)C)NC(=O)OCc1ccccc1 [calpeptin]
caspase-3; 10 μM calpeptin
  Cleavage of caspase-3 following UV irradiation: not affected
Endogenous caspase-12; pre-incubated with 10 μM calpeptin 1 hour prior to UV
  Cleavage of procaspase-12 after UV irradiation: reduced

## C[C@@H]1C[C@@H]([C@H](O)CC2CC(=O)NC(=O)C2)C(=O)[C@@H](C)C1 [cycloheximide]
[1]; SH-EP cells, 2 μM A23187 for 40 hours plus 10 μg/ml cycloheximide
  A23187-induced expression of caspase-12: inhibited

## β-amyloid [25-35]: β-amyloid [25-35] (BACHEM) (GSNKGAIIGLM; Amyloid-beta protein 42; UniProt P05067 696-706, looked up, fragment)
[1]; cultures treated with 40 μM β-amyloid [25-35] for 40 hours
  Induction of human caspase-12: induction of human caspase-12 was observed

B1: hCaspase-12: non-naturally occurring variant human caspase-12 with Ser-205 to Gly mutation (SEQ ID NO: 77), expressed as 6-His fusion protein (protein, listed as Homo sapiens)
chain: MADEKPSNGVLVHMVKLLIKTFLDGIFDDLMENNVLNTDEIHLIGKCLKFVVSNAENLVDDITETAQIAGKIFREHLWNSKKQLSSALLEIQGAQPSGKLKLCPHAHFHELKTKRADEIYPVMEKERRTCLALNIRNKEFNYLHNRNGSELDLLGMRDLLENLGYSVVIKENLTAQEMETALRQFAAHPEHQSSDSTFLVFMSHGILNGICGTKHWDQEPDVLHDDTIFEIFNNRNCQSLKDKPKVIIMQACRGNGAGIVWFTTDSGKASADTHGRLLQGNICNDAVTKAHVEKDFIAFKSSTPHNVSWRHETNGSVFISQIIYYFREYSWSHHLEEIFQKVQHSFETPNILTQLPTIERLSMTRYFYLFPGN
modifications: 6-His tag
procaspase-3
  Processing of procaspase-3 to mature subunits: lower molecular weight bands indicative of cleaved mature subunits were observed
DEVD-R110
  Measured fluorescence intensity (RFU), free rhodamine-110: 807 RFU
SH-EP cells
  Cleavage of exogenous protein in cultures undergoing apoptosis: cleaved
Calpain II
  Cleavage by calpain II: cleaves
